ChEMBL document CHEMBL1134146, “Development of specific CXCR4 inhibitors possessing high selectivity indexes as well as complete stability in serum based on an anti-HIV peptide T140” (Bioorg Med Chem Lett, 2001)

How the values were obtained:
[1] = Selectivity index determined for CC50 (test I) to EC50 x 10e3; assay type: functional
[2] = Selectivity index determined for CC50 (test II) to EC50 x 10e3; assay type: functional
MT4 = assay: Cytotoxic concentration of compound required to reduce the viability of mock infected MT-4 cells on the MTT assay in test I; assay type: functional; settings: Homo sapiens
PBMC (Homo sapiens) = assay: Cytotoxic concentration of compound determined by the […] exclusion staining method in PBMC by test II

NCCCC[C@H]1NC(=O)[C@H](CCCN=C(N)N)NC(=O)[C@@H](Cc2ccc(O)cc2)NC(=O)[C@H](NC(=O)[C@@H](NC(=O)[C@H](CCCN=C(N)N)NC(=O)[C@@H](N)CCCN=C(N)N)c2ccc3ccccc3c2)CSSC[C@H](C(=O)N[C@@H](CCCN=C(N)N)C(=O)O)NC(=O)[C@H](CCCNC(N)=O)NC(=O)[C@H](CCCN=C(N)N)NC(=O)[C@H](Cc2ccc(O)cc2)NC(=O)[C@H]2CCCN2C(=O)[C@H](CCCNC(N)=O)NC1=O
SI [1]: > 20
SI [2]: 28

NCCCC[C@@H]1NC(=O)[C@H](CCCNC(N)=O)NC(=O)[C@H](Cc2ccc(O)cc2)NC(=O)[C@@H](NC(=O)[C@@H](NC(=O)[C@H](CCCN=C(N)N)NC(=O)[C@@H](N)CCCN=C(N)N)c2ccc3ccccc3c2)CSSC[C@@H](C(=O)N[C@@H](CCCN=C(N)N)C(=O)O)NC(=O)[C@H](CCCNC(N)=O)NC(=O)[C@H](CCCN=C(N)N)NC(=O)[C@H](Cc2ccc(O)cc2)NC(=O)[C@@H]2CCCN2C(=O)[C@@H](CCCNC(N)=O)NC1=O
CC50 (MT4): > 100 µM
CC50 (PBMC (Homo sapiens)): > 800 µM

NCCCC[C@@H]1NC(=O)[C@H](CCCNC(N)=O)NC(=O)[C@H](Cc2ccc(O)cc2)NC(=O)[C@@H](NC(=O)[C@@H](NC(=O)[C@H](CCCN=C(N)N)NC(=O)[C@@H](N)CCCNC(N)=O)c2ccc3ccccc3c2)CSSC[C@@H](C(=O)N[C@@H](CCCN=C(N)N)C(=O)O)NC(=O)[C@H](CCCNC(N)=O)NC(=O)[C@H](CCCN=C(N)N)NC(=O)[C@H](Cc2ccc(O)cc2)NC(=O)[C@@H]2CCCN2C(=O)[C@@H](CCCCN)NC1=O
CC50 (MT4): > 100 µM
CC50 (PBMC (Homo sapiens)): > 800 µM

NCCCC[C@@H]1NC(=O)[C@H](CCCN=C(N)N)NC(=O)[C@H](Cc2ccc(O)cc2)NC(=O)[C@@H](NC(=O)[C@@H](NC(=O)[C@H](CCCN=C(N)N)NC(=O)[C@@H](N)CCCNC(N)=O)c2ccc3ccccc3c2)CSSC[C@@H](C(=O)N[C@@H](CCCN=C(N)N)C(N)=O)NC(=O)[C@H](CCCNC(N)=O)NC(=O)[C@H](CCCN=C(N)N)NC(=O)[C@H](Cc2ccc(O)cc2)NC(=O)[C@@H]2CCCN2C(=O)[C@@H](CCCNC(N)=O)NC1=O
CC50 (MT4): > 100 µM
CC50 (PBMC (Homo sapiens)): 500 µM

NCCCC[C@@H]1NC(=O)[C@H](CCCN=C(N)N)NC(=O)[C@H](Cc2ccc(O)cc2)NC(=O)[C@@H](NC(=O)[C@@H](NC(=O)[C@H](CCCN=C(N)N)NC(=O)[C@@H](N)CCCN=C(N)N)c2ccc3ccccc3c2)CSSC[C@@H](C(=O)N[C@@H](CCCN=C(N)N)C(=O)O)NC(=O)[C@H](CCCNC(N)=O)NC(=O)[C@H](CCCNC(N)=O)NC(=O)[C@H](Cc2ccc(O)cc2)NC(=O)[C@@H]2CCCN2C(=O)[C@@H](CCCNC(N)=O)NC1=O
CC50 (MT4): > 100 µM
CC50 (PBMC (Homo sapiens)): > 800 µM

NCCCC[C@@H]1NC(=O)[C@H](CCCNC(N)=O)NC(=O)[C@H](Cc2ccc(O)cc2)NC(=O)[C@@H](NC(=O)[C@@H](NC(=O)[C@H](CCCN=C(N)N)NC(=O)[C@@H](N)CCCNC(N)=O)c2ccc3ccccc3c2)CSSC[C@@H](C(=O)N[C@@H](CCCN=C(N)N)C(N)=O)NC(=O)[C@H](CCCNC(N)=O)NC(=O)[C@H](CCCN=C(N)N)NC(=O)[C@H](Cc2ccc(O)cc2)NC(=O)[C@@H]2CCCN2C(=O)[C@@H](CCCCN)NC1=O
CC50 (MT4): > 100 µM
CC50 (PBMC (Homo sapiens)): 350 µM

NCCCC[C@@H]1NC(=O)[C@H](CCCN=C(N)N)NC(=O)[C@H](Cc2ccc(O)cc2)NC(=O)[C@@H](NC(=O)[C@@H](NC(=O)[C@H](CCCN=C(N)N)NC(=O)[C@@H](N)CCCNC(N)=O)c2ccc3ccccc3c2)CSSC[C@@H](C(=O)N[C@@H](CCCN=C(N)N)C(=O)O)NC(=O)[C@H](CCCNC(N)=O)NC(=O)[C@H](CCCNC(N)=O)NC(=O)[C@H](Cc2ccc(O)cc2)NC(=O)[C@@H]2CCCN2C(=O)[C@@H](CCCCN)NC1=O
CC50 (MT4): > 100 µM
CC50 (PBMC (Homo sapiens)): > 800 µM

NCCCC[C@@H]1NC(=O)[C@H](CCCN=C(N)N)NC(=O)[C@H](Cc2ccc(O)cc2)NC(=O)[C@@H](NC(=O)[C@@H](NC(=O)[C@H](CCCN=C(N)N)NC(=O)[C@@H](N)CCCN=C(N)N)c2ccc3ccccc3c2)CSSC[C@@H](C(=O)N[C@@H](CCCN=C(N)N)C(N)=O)NC(=O)[C@H](CCCNC(N)=O)NC(=O)[C@H](CCCNC(N)=O)NC(=O)[C@H](Cc2ccc(O)cc2)NC(=O)[C@@H]2CCCN2C(=O)[C@@H](CCCNC(N)=O)NC1=O
CC50 (MT4): > 100 µM
CC50 (PBMC (Homo sapiens)): 680 µM

NCCCC[C@@H]1NC(=O)[C@H](CCCN=C(N)N)NC(=O)[C@H](Cc2ccc(O)cc2)NC(=O)[C@@H](NC(=O)[C@@H](NC(=O)[C@H](CCCN=C(N)N)NC(=O)[C@@H](N)CCCN=C(N)N)c2ccc3ccccc3c2)CSSC[C@@H](C(=O)N[C@@H](CCCN=C(N)N)C(N)=O)NC(=O)[C@H](CCCNC(N)=O)NC(=O)[C@H](CCCN=C(N)N)NC(=O)[C@H](Cc2ccc(O)cc2)NC(=O)[C@@H]2CCCN2C(=O)[C@@H](CCCCN)NC1=O
CC50 (MT4): 10 µM

NCCCC[C@@H]1NC(=O)[C@H](CCCNC(N)=O)NC(=O)[C@H](Cc2ccc(O)cc2)NC(=O)[C@@H](NC(=O)[C@@H](NC(=O)[C@H](CCCN=C(N)N)NC(=O)[C@@H](N)CCCN=C(N)N)c2ccc3ccccc3c2)CSSC[C@@H](C(=O)N[C@@H](CCCN=C(N)N)C(N)=O)NC(=O)[C@H](CCCNC(N)=O)NC(=O)[C@H](CCCNC(N)=O)NC(=O)[C@H](Cc2ccc(O)cc2)NC(=O)[C@@H]2CCCN2C(=O)[C@@H](CCCCN)NC1=O
CC50 (MT4): > 100 µM
CC50 (PBMC (Homo sapiens)): > 400 µM

Nc1ccn([C@H]2CC[C@@H](CO)O2)c(=O)n1 [ZALCITABINE]
CC50 (MT4): 14 µM
SI [1]: 0.16

NCCCC[C@@H]1NC(=O)[C@H](CCCNC(N)=O)NC(=O)[C@H](Cc2ccc(O)cc2)NC(=O)[C@@H](NC(=O)[C@@H](NC(=O)[C@H](CCCN=C(N)N)NC(=O)[C@@H](N)CCCN=C(N)N)c2ccc3ccccc3c2)CSSC[C@@H](C(=O)N[C@@H](CCCN=C(N)N)C(N)=O)NC(=O)[C@H](CCCNC(N)=O)NC(=O)[C@H](CCCN=C(N)N)NC(=O)[C@H](Cc2ccc(O)cc2)NC(=O)[C@@H]2CCCN2C(=O)[C@@H](CCCNC(N)=O)NC1=O
CC50 (MT4): > 100 µM
CC50 (PBMC (Homo sapiens)): > 800 µM

NCCCC[C@@H]1NC(=O)[C@H](CCCNC(N)=O)NC(=O)[C@H](Cc2ccc(O)cc2)NC(=O)[C@@H](NC(=O)[C@@H](NC(=O)[C@H](CCCN=C(N)N)NC(=O)[C@@H](N)CCCN=C(N)N)c2ccc3ccccc3c2)CSSC[C@@H](C(=O)N[C@@H](CCCN=C(N)N)C(=O)O)NC(=O)[C@H](CCCNC(N)=O)NC(=O)[C@H](CCCNC(N)=O)NC(=O)[C@H](Cc2ccc(O)cc2)NC(=O)[C@@H]2CCCN2C(=O)[C@@H](CCCCN)NC1=O
CC50 (MT4): > 100 µM
CC50 (PBMC (Homo sapiens)): > 800 µM

NCCCC[C@@H]1NC(=O)[C@H](CCCN=C(N)N)NC(=O)[C@H](Cc2ccc(O)cc2)NC(=O)[C@@H](NC(=O)[C@@H](NC(=O)[C@H](CCCN=C(N)N)NC(=O)[C@@H](N)CCCNC(N)=O)c2ccc3ccccc3c2)CSSC[C@@H](C(=O)N[C@@H](CCCN=C(N)N)C(=O)O)NC(=O)[C@H](CCCNC(N)=O)NC(=O)[C@H](CCCN=C(N)N)NC(=O)[C@H](Cc2ccc(O)cc2)NC(=O)[C@@H]2CCCN2C(=O)[C@@H](CCCNC(N)=O)NC1=O
CC50 (MT4): > 100 µM
CC50 (PBMC (Homo sapiens)): > 800 µM

NCCCC[C@@H]1NC(=O)[C@H](CCCNC(N)=O)NC(=O)[C@H](Cc2ccc(O)cc2)NC(=O)[C@@H](NC(=O)[C@@H](NC(=O)[C@H](CCCN=C(N)N)NC(=O)[C@@H](N)CCCN=C(N)N)c2ccc3ccccc3c2)CSSC[C@@H](C(=O)N[C@@H](CCCN=C(N)N)C(N)=O)NC(=O)[C@H](CCCNC(N)=O)NC(=O)[C@H](CCCN=C(N)N)NC(=O)[C@H](Cc2ccc(O)cc2)NC(=O)[C@@H]2CCCN2C(=O)[C@@H](CCCCN)NC1=O
CC50 (MT4): > 100 µM
CC50 (PBMC (Homo sapiens)): 410 µM

NCCCC[C@@H]1NC(=O)[C@H](CCCN=C(N)N)NC(=O)[C@H](Cc2ccc(O)cc2)NC(=O)[C@@H](NC(=O)[C@@H](NC(=O)[C@H](CCCN=C(N)N)NC(=O)[C@@H](N)CCCN=C(N)N)c2ccc3ccccc3c2)CSSC[C@@H](C(=O)N[C@@H](CCCN=C(N)N)C(=O)O)NC(=O)[C@H](CCCNC(N)=O)NC(=O)[C@H](CCCN=C(N)N)NC(=O)[C@H](Cc2ccc(O)cc2)NC(=O)[C@@H]2CCCN2C(=O)[C@@H](CCCNC(N)=O)NC1=O
CC50 (MT4): > 80 µM
CC50 (PBMC (Homo sapiens)): 110 µM

NCCCC[C@@H]1NC(=O)[C@H](CCCN=C(N)N)NC(=O)[C@H](Cc2ccc(O)cc2)NC(=O)[C@@H](NC(=O)[C@@H](NC(=O)[C@H](CCCN=C(N)N)NC(=O)[C@@H](N)CCCNC(N)=O)c2ccc3ccccc3c2)CSSC[C@@H](C(=O)N[C@@H](CCCN=C(N)N)C(N)=O)NC(=O)[C@H](CCCNC(N)=O)NC(=O)[C@H](CCCNC(N)=O)NC(=O)[C@H](Cc2ccc(O)cc2)NC(=O)[C@@H]2CCCN2C(=O)[C@@H](CCCCN)NC1=O
CC50 (MT4): > 100 µM
CC50 (PBMC (Homo sapiens)): 470 µM

NCCCC[C@@H]1NC(=O)[C@H](CCCNC(N)=O)NC(=O)[C@H](Cc2ccc(O)cc2)NC(=O)[C@@H](NC(=O)[C@@H](NC(=O)[C@H](CCCN=C(N)N)NC(=O)[C@@H](N)CCCN=C(N)N)c2ccc3ccccc3c2)CSSC[C@@H](C(=O)N[C@@H](CCCN=C(N)N)C(=O)O)NC(=O)[C@H](CCCNC(N)=O)NC(=O)[C@H](CCCN=C(N)N)NC(=O)[C@H](Cc2ccc(O)cc2)NC(=O)[C@@H]2CCCN2C(=O)[C@@H](CCCCN)NC1=O
CC50 (MT4): > 80 µM
CC50 (PBMC (Homo sapiens)): 510 µM

NCCCC[C@@H]1NC(=O)[C@@H](CCCCN)NC(=O)[C@H](CCCN=C(N)N)NC(=O)[C@@H](Cc2ccc(O)cc2)NC(=O)[C@H](NC(=O)[C@@H](NC(=O)[C@H](CCCN=C(N)N)NC(=O)[C@@H](N)CCCN=C(N)N)c2ccc3ccccc3c2)CSSC[C@H](C(=O)N[C@@H](CCCN=C(N)N)C(N)=O)NC(=O)[C@H](CCCNC(N)=O)NC(=O)[C@H](CCCN=C(N)N)NC(=O)[C@H](Cc2ccc(O)cc2)NC(=O)[C@H]2CCCN2C1=O
SI [1]: 0.14

NCCCC[C@@H]1NC(=O)[C@H](CCCN=C(N)N)NC(=O)[C@H](Cc2ccc(O)cc2)NC(=O)[C@@H](NC(=O)[C@@H](NC(=O)[C@H](CCCN=C(N)N)NC(=O)[C@@H](N)CCCN=C(N)N)c2ccc3ccccc3c2)CSSC[C@@H](C(=O)N[C@@H](CCCN=C(N)N)C(N)=O)NC(=O)[C@H](CCCNC(N)=O)NC(=O)[C@H](CCCN=C(N)N)NC(=O)[C@H](Cc2ccc(O)cc2)NC(=O)[C@@H]2CCCN2C(=O)[C@@H](CCCNC(N)=O)NC1=O
CC50 (MT4): > 100 µM
CC50 (PBMC (Homo sapiens)): 98 µM
